Experiments:
[1] = tested on: carrageenin-induced rat foot edema; experiment: carrageenin-induced rat foot edema test; type: in vivo; details: for % Inhibition at 32 mg./kg. (inhibition of edema formation): rats, 32 mg./kg. orally (by gavage), compared to vehicle control
Text: (§1) Such conditions include gastrointestinal disorders such as ulcer and colitis and other like diseases of the gastrointestinal tract, central nervous system disorders such as anxiety and psychosis, inflammatory diseases such as rheumatoid arthritis and inflammatory bowel diseases, respiratory diseases such as asthma, as well as pain in any of the aforesaid conditions, including migraine. […] A. Winter et al., Proceedings of the Society of Experimental Biology and Medicine, Vol. 111, p.
In this test, anti-inflammatory activity is determined as the percent inhibition of edema formation in the hind par of male albino rats (weighing 150-190 g.) in response to a sub-plantar injection of carrageenin. The carrageenin is injected as a 1% aqueous solution. Edema formation is then assessed by measuring the volume of the injected paw initially as well as three hours after the carrageenin injection. The increase in volume three hours after carrageenin injection constitutes the individual response. Compounds are considered active if the difference in response between the drug-treated animals (six rats/group) and a control group receiving the vehicle alone is significant on comparison with the results afforded by a standard compound like phenylbutazone at 33 mg./kg., via the oral route of administration.
The following cis-[(cyclic)methylamino]-2-benzhydrylquinuclidine final products of Examples 2, 3 and 4, respectively, were tested for anti-inflammatory activity in rats, using the standard rat foot edema test, according to the general procedure described by C. A. Winter et al., as first reported in the Proceedings of the Society for Experimental Biology and Medicine, Vol. 111, p. 544 (1962).

[2] = tested on: substance P-induced locomotion; experiment: suppression of substance P-induced hypermotility (locomotion) in rats; type: in vivo, rat; details: 32 mg./kg. dose level, intraperitoneal route
Text: as §1
The anti-psychotic activity of the compounds of the present invention as neuroleptic agents for the control of various psychotic disorders is determined primarily by a study of their ability to suppress substance P-induced hypermotility in rats. This study is carried out by first dosing the rats with a control compound or with an appropriate test compound of the present invention, then injecting the rats with substance P by intracerebral administration via canula and thereafter measuring their individual locomotor response to said stimuli.

Structure (SMILES) | % Inhibition at 32 mg./kg. (inhibition of edema formation) [1] | inhibition in swelling ([1]; rat, 100 mg./kg. dose level, oral route) | inhibition of substance P-induced locomotion [2]
COc1ccccc1CN[C@H]1C2CCN(CC2)[C@H]1C(c1ccccc1)c1ccccc1 (relative stereo) [Example 4, cis-3-[(2-methoxyphenyl)methylamino]-2-benzhydrylquinuclidine] | 38% | – | –
FC(F)(F)c1ccccc1CN[C@H]1C2CCN(CC2)[C@H]1C(c1ccccc1)c1ccccc1 (relative stereo) [Example 3, cis-3-[(2-trifluorophenyl)methylamino]-2-benzhydrylquinuclidine] | 50% | – | –
Clc1ccccc1CN[C@H]1C2CCN(CC2)[C@H]1C(c1ccccc1)c1ccccc1 (relative stereo) [Example 2, cis-3-[(2-chlorophenyl)methylamino]-2-benzhydrylquinuclidine] | 29% | 50% | 50%

Reference: US5162339A, “Quinuclidine therapeutic agents” (Pfizer Inc., priority 1990, dated 1992)
